Test results taken from ChEMBL document CHEMBL1201862, “PubChem BioAssay data set” (2004).
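Protocol summary: plate cells (96-well), add compound at 5 concentrations, incubate 48 h, interpolate endpoints linearly. The concentration for 50% growth inhibition is given as GI50.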 Calls of active or inactive are those of the source. Cut-off read from the data, not from the text of the source: active = GI50 up to about 1.1 µM and inactive = higher.

Legend:
Experiment in all cases: NCI anticancer screen, dose series, 48 h
786-0 = tested on: 786-0
A498 = tested on: A498
A549 = tested on: A549
ACHN = tested on: ACHN
CAKI-1 = tested on: CAKI-1
CCRF-CEM = tested on: CCRF-CEM
COLO 205 = tested on: COLO 205
DMS-114 = tested on: DMS-114
DMS-273 = tested on: DMS-273
EKVX = tested on: EKVX
HCC 2998 = tested on: HCC 2998
HCT-116 = tested on: HCT-116
HCT-15 = tested on: HCT-15
HL-60 = tested on: HL-60
HOP-62 = tested on: HOP-62
HOP-92 = tested on: HOP-92
HT-29 = tested on: HT-29
K562 = tested on: K562
KM-20L2 = tested on: KM-20L2
KM12 = tested on: KM12
LOX IMVI = tested on: LOX IMVI
LXFL 529 = tested on: LXFL 529
M14 = tested on: M14
M19-MEL = tested on: M19-MEL
MOLT-4 = tested on: MOLT-4
Malme-3M = tested on: Malme-3M
NCI-H23 = tested on: NCI-H23
NCI-H460 = tested on: NCI-H460
NCI-H522 = tested on: NCI-H522
OVCAR-3 = tested on: OVCAR-3
OVCAR-4 = tested on: OVCAR-4
OVCAR-8 = tested on: OVCAR-8
RPMI-8226 = tested on: RPMI-8226
RXF 393 = tested on: RXF 393
SF-268 = tested on: SF-268
SF-295 = tested on: SF-295
SF-539 = tested on: SF-539
SK-MEL-28 = tested on: SK-MEL-28
SK-MEL-2 = tested on: SK-MEL-2
SK-MEL-5 = tested on: SK-MEL-5
SK-OV-3 = tested on: SK-OV-3
SN12C = tested on: SN12C
SNB-19 = tested on: SNB-19
SNB-75 = tested on: SNB-75
SNB-78 = tested on: SNB-78
SR = tested on: SR
SW-620 = tested on: SW-620
TK-10 = tested on: TK-10
U-251 = tested on: U-251
UACC-257 = tested on: UACC-257
UACC-62 = tested on: UACC-62
UO-31 = tested on: UO-31
DLD-1 = tested on: DLD-1
HOP-18 = tested on: HOP-18
IGROV-1 = tested on: IGROV-1
NCI-H226 = tested on: NCI-H226
OVCAR-5 = tested on: OVCAR-5
XF498 = tested on: XF498

In the case of `CCCCCCCCCCCC(=O)OCC1OC(n2cc(F)c(=O)[nH]c2=O)C(N)C(OC(=O)CCCCCCCCCCC)C1O` (configuration not stated), the GI50 (786-0) is reported as > 100 µM (inactive), the GI50 (A498) is reported as > 100 µM (inactive) and the GI50 (A549) is reported as > 100 µM (inactive). The GI50 (ACHN) was > 100 µM (inactive), the GI50 (CAKI-1) was > 100 µM (inactive) and the GI50 (CCRF-CEM) was 37.2 µM (inactive). The GI50 (COLO 205) was 68.4 µM (inactive), the GI50 (DMS-114) was 49.5 µM (inactive) and the GI50 (DMS-273) was 44.3 µM (inactive). The GI50 (EKVX) was > 100 µM (inactive), the GI50 (HCC 2998) was 45.3 µM (inactive) and the GI50 (HCT-116) was 88.1 µM (inactive). For the same molecule, the GI50 (HCT-15) was > 100 µM, the GI50 (HL-60) was 29.6 µM (inactive) and the GI50 (HOP-62) was > 100 µM (inactive). For the same molecule, the GI50 (HOP-92) was 36.2 µM (inactive), the GI50 (HT-29) was > 100 µM (inactive) and the GI50 (K562) was 30.2 µM (inactive). For the same molecule, the GI50 (KM-20L2) was > 100 µM (inactive), the GI50 (KM12) was 45.4 µM (inactive) and the GI50 (LOX IMVI) was 88.3 µM (inactive). The GI50 (LXFL 529) was 33.9 µM (inactive), the GI50 (M14) was 64.4 µM (inactive) and the GI50 (M19-MEL) was > 100 µM (inactive). For the same molecule, the GI50 (MOLT-4) was 27 µM (inactive), the GI50 (Malme-3M) was > 100 µM (inactive) and the GI50 (NCI-H23) was > 100 µM (inactive). The GI50 (NCI-H460) was > 100 µM (inactive), the GI50 (NCI-H522) was 31.6 µM (inactive) and the GI50 (OVCAR-3) was 47.5 µM (inactive). The GI50 (OVCAR-4) was 37.3 µM (inactive), the GI50 (OVCAR-8) was 93.1 µM (inactive) and the GI50 (RPMI-8226) was 54.5 µM (inactive). For the same molecule, the GI50 (RXF 393) was > 100 µM (inactive), the GI50 (SF-268) was > 100 µM (inactive) and the GI50 (SF-295) was > 100 µM (inactive). For the same molecule, the GI50 (SF-539) was 69.7 µM (inactive), the GI50 (SK-MEL-28) was > 100 µM (inactive) and the GI50 (SK-MEL-2) was > 100 µM (inactive). For the same molecule, the GI50 (SK-MEL-5) was 0.59 µM (active), the GI50 (SK-OV-3) was > 100 µM (inactive) and the GI50 (SN12C) was 60.7 µM (inactive). For the same molecule, the GI50 (SNB-19) was > 100 µM (inactive), the GI50 (SNB-75) was 49.7 µM (inactive) and the GI50 (SNB-78) was 71.1 µM (inactive). For the same molecule, the GI50 (SR) was 34.4 µM (inactive), the GI50 (SW-620) was 68.4 µM (inactive) and the GI50 (TK-10) was > 100 µM (inactive). For the same molecule, the GI50 (U-251) was > 100 µM (inactive), the GI50 (UACC-257) was > 100 µM (inactive) and the GI50 (UACC-62) was > 100 µM (inactive). For the same molecule, the GI50 (UO-31) was > 100 µM (inactive).
With `O=c1nc(NC(c2ccccc2)(c2ccccc2)c2ccccc2)ccn1CCNCCn1ccc(NC(c2ccccc2)(c2ccccc2)c2ccccc2)nc1=O` the GI50 (786-0) was 14.1 µM (inactive), the GI50 (A498) was 27 µM (inactive) and the GI50 (A549) was 26.2 µM (inactive). For the same molecule, the GI50 (ACHN) was 40.6 µM (inactive), the GI50 (CAKI-1) was 14.8 µM (inactive) and the GI50 (CCRF-CEM) was 5.96 µM (inactive). For the same molecule, the GI50 (COLO 205) was 10.7 µM (inactive), the GI50 (DLD-1) was 6.53 µM (inactive) and the GI50 (DMS-114) was 3.23 µM (inactive). The GI50 (DMS-273) was 4.16 µM (inactive), the GI50 (EKVX) was 18.7 µM (inactive) and the GI50 (HCC 2998) was 3.96 µM (inactive). The GI50 (HCT-116) was 3.92 µM (inactive), the GI50 (HCT-15) was > 100 µM and the GI50 (HL-60) was 2.41 µM (inactive). The GI50 (HOP-18) was 16.3 µM (inactive), the GI50 (HOP-62) was 15.5 µM (inactive) and the GI50 (HOP-92) was 5.45 µM (inactive). The GI50 (HT-29) was 5.83 µM (inactive), the GI50 (IGROV-1) was 5.15 µM (inactive) and the GI50 (K562) was 3.46 µM (inactive). For the same molecule, the GI50 (KM-20L2) was 10 µM (inactive), the GI50 (KM12) was 3.44 µM (inactive) and the GI50 (LOX IMVI) was 2.84 µM (inactive). The GI50 (LXFL 529) was 5.26 µM (inactive), the GI50 (M14) was 18.3 µM (inactive) and the GI50 (M19-MEL) was 4.46 µM (inactive). The GI50 (Malme-3M) was 11.8 µM (inactive), the GI50 (NCI-H226) was 14.5 µM (inactive) and the GI50 (NCI-H23) was 12.5 µM (inactive). The GI50 (NCI-H460) was 11.8 µM (inactive), the GI50 (NCI-H522) was 4.66 µM (inactive) and the GI50 (OVCAR-3) was 11.9 µM (inactive). For the same molecule, the GI50 (OVCAR-4) was 14.2 µM (inactive), the GI50 (OVCAR-5) was 31 µM (inactive) and the GI50 (OVCAR-8) was 10.7 µM (inactive). For the same molecule, the GI50 (RPMI-8226) was 2.55 µM (inactive), the GI50 (RXF 393) was 11.8 µM (inactive) and the GI50 (SF-268) was 4.84 µM (inactive). For the same molecule, the GI50 (SF-295) was 11.5 µM (inactive), the GI50 (SF-539) was 11.3 µM (inactive) and the GI50 (SK-MEL-28) was 6.07 µM (inactive). For the same molecule, the GI50 (SK-MEL-2) was 2.66 µM (inactive), the GI50 (SK-MEL-5) was 5.48 µM (inactive) and the GI50 (SK-OV-3) was 19.6 µM (inactive). For the same molecule, the GI50 (SN12C) was 12.4 µM (inactive), the GI50 (SNB-19) was 9.27 µM (inactive) and the GI50 (SNB-75) was 20.2 µM (inactive). For the same molecule, the GI50 (SW-620) was 6.64 µM (inactive), the GI50 (TK-10) was 26.9 µM (inactive) and the GI50 (U-251) was 4.33 µM (inactive). For the same molecule, the GI50 (UACC-257) was 5.82 µM (inactive), the GI50 (UACC-62) was 4.42 µM (inactive) and the GI50 (UO-31) was > 100 µM (inactive). For the same molecule, the GI50 (XF498) was 4.11 µM (inactive).
